# Several values for one entry are separate records, joined by “and”; a condition that tells them apart may be missing. Equal entries are not always repeated. Where two headings read alike, the source gives them in different places.
# Experiments:
# [1] = test system: canine whipworm (Trichuris vulpis); experiment: Anthelmintic test in naturally infected dogs with mixed infections, E.P.G. on 7th day: canine whipworm (Test Examples A3, B3, C3, D3); type: in vivo
# Method: (§1) Three dogs with mixed infections by canine whipworm (Trichuris vulpis), canine hookworm (Ancylostoma caninum) and canine roundworm (Toxocara canis) (naturally infected dogs) were employed in a group of two and a group of one.
# (§2) The compound provided for the test was Compound No.Al, and 20 mg/Kg thereof was placed in a gelatin capsule per 1 Kg of body weight, and administered orally to the two dogs. As control, only a gelatin capsule was administered orally to the one dog.
# (§3) Before administration and on the 7th day after administration, fecal matter testing was conducted to calculate the E.P.G., and the anthelmintic effect was judged by the changing of the E.P.G. to negative.
# (§4) As control, only gelatin capsules were administered orally to the one dog.
# (§5) The same method as in Test Example A3, but the compound provided for the test was Compound No. Cl. 30 mg/Kg of this compound was placed in a gelatin capsule per 1 Kg of body weight and administered orally to the two dogs. As control, only gelatin capsules were administered orally to the one dog.
# [2] = test system: stomach worm (Haemonchus controtus); experiment: Anthelmintic test against cow stomach worm in naturally infected cows, E.P.G. on 7th day (Test Examples A6, B6, C6, D6); type: in vivo; settings: cows
# Method: Three cows infected with stomach worm (naturally infected cows) were employed by grouping them into a group of two and a group of one.
# (§6) As control, only gelatin capsules were administered orally to the one cow.
# as §3, §6, §6
# [3] = test system: fowl roundworm (As. galli); experiment: Anthelmintic test in chickens artificially infected with fowl roundworm, compound added to feed, E.P.G. and worm count up to 21st day (Test Examples A2, B2, C2, D2); type: in vivo, Ascaridia galli; settings: Ascaridia galli, po, 504 h, chickens, worm count on 21st day, one value per chicken, read-out: Anthelmintic effect
# [4] = test system: canine hookworm (Ancylostoma caninum); experiment: Anthelmintic test in naturally infected dogs with mixed infections, E.P.G. on 7th day: canine hookworm (Test Examples A3, B3, C3, D3); type: in vivo; settings: dogs, 30 mg/Kg orally once, one value per dog
# Method: as §1, §2, §3, §4, §5
# [5] = test system: fowl roundworm (Ascaridia galli); experiment: Anthelmintic test in chickens artificially infected with fowl roundworm, single oral dose in gelatin capsule, worm bodies counted within 48 hours (Test Examples A1, B1, C1, D1); type: in vivo; settings: Ascaridia galli, po, 48 h, chickens, one value per chicken (No.1-3), read-out: Anthelmintic effect after 48 hours
# Method in brief: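 Groups of three chickens with confirmed Ascaridia galli infection given a single oral dose in gelatin capsule (10 and 20 mg/kg in A1 and B1; 30 and 50 mg/kg in C1; 15 and 30 mg/kg in D1). Worms expelled over 48 h and those remaining in the gut at necropsy counted to give anthelmintic percentage.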
# [6] = test system: canine roundworm (Toxocara canis); experiment: Anthelmintic test in naturally infected dogs with mixed infections, E.P.G. on 7th day: canine roundworm (Test Examples A3, B3, C3, D3); type: in vivo; settings: dogs, 30 mg/Kg orally once, one value per dog
# Method: as §1, §2, §3, §4, §5
# [7] = test system: swine Oesophagostomum (Oesophagostomum dentatum); experiment: Test of anthelmintic effect against swine Oesophagostomum in naturally infected pigs, E.P.G. on 7th day (Test Examples A8, B8, C8, D8); type: in vivo; settings: pigs
# Method: Six pigs infected with swine Oesophagostomum (naturally infected pigs) were employed by grouping them into groups each of two pigs.
# As a control, only gelatin capsules were administered orally to the two pigs.
# as §3
# [8] = test system: canine filaria; Dirofilaria immitis; experiment: Test of anthelmintic effect against canine filaria in naturally infected dogs, subcutaneous injection, microfilaria in blood and adult filaria at autopsy (Test Examples A10, B10, C10, D10); type: in vivo; settings: for inhibition in vivo at 30 mg/kg: Dirofilaria immitis, sc, 240 h
# [9] = test system: Diphyllobothrium erinacei; experiment: Test of anthelmintic effect against Diphyllobothrium erinacei (tapeworm) in experimentally infected cats (Test Examples A5, B5, C5, D5)
compound,measurement,setting,value
"C=CCN(OC)C(C)=O [Compound B1, N-allyl-N-acetyl-O-methylhydroxylamine]",anthelmintic effect,"[1]; dogs with mixed infections (Trichuris vulpis, Ancylostoma caninum, Toxocara canis; statement covers all three), one administration of 30 mg/Kg",marked anthelmintic effect
same,Change of E.P.G. Before administration,"[1]; dogs, 30 mg/Kg orally once, Trichuris vulpis, baseline, one value per dog, 30 mg/kg","5,100 E.P.G. and 2,700 E.P.G."
same,Change of E.P.G. 7th day,"[1]; dogs, 30 mg/Kg orally once, Trichuris vulpis, one value per dog",0 E.P.G.
same,Change of E.P.G. Before administration,"[2]; 20 mg/Kg orally once, baseline, one value per cow, 20 mg/kg","2,500 E.P.G. and 3,300 E.P.G."
same,Change of E.P.G. 7th day,"[2]; 20 mg/Kg orally once, one value per cow",0 E.P.G.
same,anthelmintic effect,[2]; one administration of 20 mg/Kg,marked anthelmintic effect
same,inhibition in vivo at 20 ppm,[3]; 20 ppm added to feed,80 to 90%
same,inhibition in vivo at 50 ppm,[3]; 50 ppm added to feed,100%
same,Change of E.P.G. Before administration,"[4]; baseline, 30 mg/kg","4,500 E.P.G. and 8,700 E.P.G."
same,Change of E.P.G. 7th day,[4],0 E.P.G.
same,inhibition in vivo at 30 mg/kg,[5]; 30 mg/Kg orally in gelatin capsule,100%
same,inhibition in vivo at 50 mg/kg,[5]; 50 mg/Kg orally in gelatin capsule,100%
same,Change of E.P.G. Before administration,"[6]; baseline, 30 mg/kg","6,100 E.P.G. and 3,200 E.P.G."
same,Change of E.P.G. 7th day,[6],0 E.P.G.
same,Change of E.P.G. Before administration,"[7]; 20 mg/Kg orally once, baseline, one value per pig, 20 mg/kg","1,200 E.P.G. and 2,600 E.P.G."
same,Change of E.P.G. 7th day,"[7]; 20 mg/Kg orally once, one value per pig",0 E.P.G.
same,anthelmintic effect,[7]; one administration of 20 mg/Kg,marked anthelmintic effect
same,inhibition in vivo at 30 mg/kg,"[8]; dog, 30 mg/Kg x 3, subcutaneous injection, read-out: Effect on adult filaria: Percent of worms killed",58%
same,inhibition in vivo at 30 mg/kg,"[8]; dogs, administration of 30 mg/Kg repeated three times, given as about 50% or more, read-out: anthelmintic effect against adult filaria",≥ 50%
same,Number of microfilaria/20 µl on 10th day after the last administration,"[8]; dog, 30 mg/Kg x 3, subcutaneous injection, suspension in 1% Tween 80",0 /20 µl
same,Effect on adult filaria: Number of worms killed/ Total parasite,"[8]; dog, 30 mg/Kg x 3, subcutaneous injection, 30 mg/kg",8/15 and 12/21
same,anthelmintic effect against microfilaria (mf),"[8]; dogs, administration of 30 mg/Kg repeated three times",marked anthelmintic effect
same,Number of worm bodies remaining in enteron,"[9]; cats infected with 5 plerocercoids, 50 mg/Kg x 5 times orally, autopsy ten days after administration, one value per cat",0
same,Worm egg detection on 10th day after administration,"[9]; cats, 50 mg/Kg x 5 orally, one value per cat (Table B7)",-
same,anthelmintic effect,"[9]; cats, 5 continuous administrations of 50 mg/Kg",marked anthelmintic effects
